Data on 88 compounds can be found in PubChem BioAssay AID2305 (GlaxoSmithKline (GSK), 2010).

“And” between values parts separate entries of the source, which are not always exact repeats. Equal entries are not always repeated.

What is called IC50 is the concentration that gives 50% inhibition. Higher therefore signals weaker potency in that assay.

This experiment concerns P. falciparum 3D7 growth, pLDH absorbance. Put plainly: P. falciparum 3D7 growth inhibition, dose response, strain 3D7 (AID 2305).

`CCOc1cc(C=NNc2nc(C)cc(-n3nc(C)cc3C)n2)ccc1O`: the IC50 was 1.08 µM.

In turn, `COc1ccc(CN(C)Cc2cc(C(C)C)c(C)cc2O)cc1F` returned an IC50 of 0.65 µM.

`CN(C)CCNC(=O)c1ccc2c(c1)ncn2-c1cc(OCc2ccccc2C(F)(F)F)c(C(N)=O)s1` (tested in a mixture with another compound): the IC50 was 0.81 µM.

Consider `Cc1ccccc1C1CCN(C2CCC(NC(=O)/C=C/c3cc(F)ccc3F)CC2)CC1` (stereo not drawn), for which the IC50 was 1.04 µM.

The compound `COc1ccc2c(c1C1CCN(CCCCNC(=O)c3ccc(NC(=O)c4ccc(Cl)cc4)cc3)CC1)CCCC2` displayed an IC50 of 0.34 µM.

For the compound `CCn1c(C2CCN(CCC3CCN(C(=O)/C=C/c4ccc(Cl)c(Cl)c4)CC3)CC2)nc2ccccc21`, the IC50 was 1.08 µM.

`COc1cccc(NC(=O)Cn2c(C)c(C(=O)C(F)(F)F)c3ccccc32)c1` yielded a half-inhibitory concentration (IC50) of 0.83 µM.

Consider `Cc1cccc2[nH]c(-c3ccc(-c4ccc(CNCCNC(=O)c5ccnn5C)cc4)s3)nc12`, for which the IC50 worked out at 0.31 µM.

`O=C(O)c1ccc(-c2cnc3ccc(NC4CCC(O)CC4)nn23)cc1` (stereo not drawn) had an IC50 of 1 µM.

`NC(N)=NN=CC(=O)Nc1ccc(Br)cc1` returned an IC50 of 0.88 µM.

In the case of `CN(C)CCNc1cc(-c2ccc3ccccc3c2)nc2ccccc12`, the IC50 turned out to be 0.35 µM.

On to `Cc1nn(C)cc1C(C)Nc1nncc(-c2ccc(C(F)(F)F)cc2)n1` (stereo not drawn), for which the IC50 is 0.25 µM.

As for `Cc1cccc2[nH]c(-c3ccc(-c4ccc(NC(=O)Nc5ccc(F)c(F)c5F)cc4)s3)nc12`, the IC50 amounted to 0.18 µM.

As to `Nc1nc(N)c2c(Cl)c(N(Cc3ccccc3)Cc3ccccc3)ccc2n1`, the IC50 came out at 0.19 µM.

`Cc1cc(N[C@@H](Cc2ccccc2)C(=O)NC2CCCC2)nc(NCc2ccccc2C)n1` displayed an IC50 of 1.23 µM.

`CCCCCCN1CCC(NCc2cccc(C(F)(F)F)c2)CC1` gave an IC50 of 0.25 µM.

As to `CCN(CC)CCOc1ccc(NC(=O)c2oc3ccccc3c2C=Cc2ccccc2)cc1`, the IC50 is 0.22 µM.

`O=c1cc(NCCCNCc2ccc(Cl)c(Cl)c2)[nH]c2ccc(Cl)cc12` displayed an IC50 of 0.34 µM.

In the case of `CC1CCC2(CC1)N=C(N)N=C(N)N2OCc1ccc(Br)c2ccccc12` (stereo not drawn), the IC50 came to 0.22 µM.

With `CC[C@H](C)CNC(=O)c1ccnc(-c2cccc(CN3CCC(N4CCCC4)CC3)c2)c1`, the IC50 was determined as 0.85 µM.

The compound `Cc1cc(NC(=O)c2sc3ccccc3c2O)no1` gave an IC50 of 0.81 µM.

With `COC(=O)c1cc(C(O)CNC(C)CCCc2ccccc2)ccc1O` (stereo not drawn), the IC50 is 0.74 µM.

Take `COc1ccc2nccc([C@@H](O)CN3CCC(NCc4cc5c(F)ccc(F)c5[nH]4)CC3)c2n1`: the IC50 worked out at 0.7 µM.

As for `COc1cc(Nc2nccc(N3CCC(NC(=O)C4COc5ccccc5O4)C3)n2)cc(OC)c1OC` (stereo not drawn), the IC50 is 0.92 µM.

`O=C(NC1CC1)c1ccc(N2CCC(Oc3ccc(F)cc3)CC2)nc1`: the IC50 is 1.09 µM.

With `NC(=O)c1cccc(CNCc2ccc(-c3cccc(-c4nc5ccccc5[nH]4)c3)cc2)c1`, the IC50 turned out to be 0.59 µM.

Regarding `COc1ccc(C=CC(=O)NC2CCC(CN3CCC(c4c[nH]c5ccccc45)CC3)CC2)cc1` (stereo not drawn), the IC50 is 0.78 µM and 0.81 µM.

`Nc1c2c(nc3ccc(NC(=O)c4ccc([N+](=O)[O-])cc4)cc13)CCCC2`: the IC50 was found to be 0.24 µM.

`CC(Cc1ccc(NC(=O)c2ccc(CNCCc3ccccc3)cc2)cc1)NCCc1cccc(Cl)c1` (stereo not drawn) returned an IC50 of 0.35 µM.

As to `O=C(Nc1cccc(-c2cccc(-c3nc4ccccc4[nH]3)c2)c1)N[C@@H]1C[C@H]1c1ccccc1`, the IC50 is 1.07 µM and 0.9 µM.

For the compound `CCn1c(-c2nonc2N)nc2cnc(Oc3cccc(NC(=O)c4ccc(OCCN5CCCCC5)cc4)c3)cc21`, the IC50 turned out to be 1.06 µM.

Consider `O=C(Nc1ccc(-c2cncc(NCCCN3CCCC3)c2)cc1)c1ccccc1`, for which the IC50 stood at 0.94 µM.

Take `CC(C)(C)C(=O)N1CCN(c2ccc([N+](=O)[O-])c(NC3CC3)c2)CC1`: the IC50 was determined as 0.94 µM.

As for `OC(CNCc1ccccc1)c1cc(OCc2ccccc2)cc(OCc2ccccc2)c1` (stereo not drawn), the IC50 was determined as 1 µM.

The compound `Cc1ccc(NC(=O)c2ccc3ncccc3c2)cc1OC1CCN(Cc2ccsc2)C1` (stereo not drawn) yielded an IC50 of 0.8 µM.

Consider `C[C@@H](Nc1nc(NCc2ccccc2)c2sccc2n1)c1ccccc1`, for which the IC50 was found to be 0.92 µM.

In the case of `Cc1cc(N[C@@H](Cc2ccccc2)C(=O)NC2CCCC2)nc(NCCc2ccc(F)cc2)n1`, the IC50 is 0.8 µM.

The compound `O=C(c1cc(C(=O)NC2CCCCC2)c(=O)n(C2CCCCC2)c1)c1cc(F)ccc1O` showed an IC50 of 0.63 µM.

As for `C=C[C@]1(C)C[C@@H](OC(=O)c2n[nH]c3ccccc3c2=O)[C@]2(C)[C@H](C)CC[C@]3(CCC(=O)[C@H]32)[C@@H](C)[C@@H]1O`, the IC50 was found to be 0.67 µM.

In the case of `CN1CCN(c2ccc(Nc3ncc(C#N)c(Nc4ccccc4C(N)=O)n3)cc2)CC1`, the IC50 amounted to 0.04 µM.

Turning to `Cc1cccc2[nH]c(-c3ccc(-c4ccc(CN5CCN(c6ccncc6)CC5)cc4)s3)nc12`, the IC50 came out at 0.11 µM.

Take `c1cc(CNC2CCCC2)cc(-c2ccc(CNc3ccc4ncccc4c3)cc2)c1`: the IC50 came out at 0.77 µM.

Take `COc1ccc(-c2cccc(NC(=O)c3cccc(Cl)c3)c2)cc1CN(C)CCN(C)C`: the IC50 turned out to be 0.81 µM.

In turn, `Clc1ccc(Nc2nc(NCc3ccccc3)nc(N/N=C/c3ccccn3)n2)cc1` gave an IC50 of 0.78 µM.

Compound `O=C(Nc1cccc(CN2CCCN(Cc3ccc(O)cc3)CC2)c1)c1ccc(Br)cc1` registered an IC50 of 0.8 µM.

Consider `Brc1cccc(Nc2nccc(Nc3ccc(Oc4ccccc4)cc3)n2)c1`, for which the IC50 turned out to be 1.01 µM.

`CC(C)NCc1cccc(-c2cccc(-c3nc4ccccc4[nH]3)c2)c1` yielded an IC50 of 0.8 µM.

Turning to `N#Cc1cc(C(=O)c2cc(Br)ccc2O)cn(C2CCCCC2)c1=O`, the IC50 came to 0.91 µM.

`CC(Nc1cc(-c2ccccn2)nc(-c2ccccn2)n1)c1ccccc1` (stereo not drawn) displayed an IC50 of 0.45 µM.

As for `Cc1noc(C)c1-c1cccc(CNCc2cccc(-c3ccc(-c4nc5ccccc5[nH]4)s3)c2)c1`, the IC50 came to 0.2 µM.

In turn, `CC(C)(C)c1nn(-c2ccc(Cl)cc2)c2[nH]c(=O)c(CNC3CCCC3)cc12` came in with an IC50 of 0.23 µM.

`N=c1n(CCN2CCCC2)c2ccccc2n1CC(O)c1ccc(Cl)c(Cl)c1` (stereo not drawn) returned an IC50 of 0.28 µM.

`NCc1ccc(CNCc2cccc(-c3cccc(-c4nc5ccc(F)cc5[nH]4)c3)c2)cc1` had an IC50 of 0.31 µM.

The compound `NC(N)=Nc1nc(-c2cccc(NC(=O)C(F)(F)F)c2)cs1` had an IC50 of 1.05 µM.

On to `O=C(Nc1ccc(S(=O)(=O)NCCCN2CCOCC2)cc1)c1cc(-c2ccccc2)n[nH]1`, for which the IC50 was 0.77 µM.

Regarding `CCc1ccc(OCc2ccccc2C(=O)Nc2ccc3nc(C)cc(N)c3c2)cc1`, the IC50 stood at 0.2 µM.

With `COc1ccc(S(=O)(=O)N2CCCC(C)C2)cc1N1CCN(C(=O)c2ccc([N+](=O)[O-])o2)CC1` (stereo not drawn), the IC50 was determined as 1.25 µM.

For the compound `O=C(NCc1ccc(C(=O)NC2CCCCCC2)cc1)c1ccc(O)c(-c2ccc(Cl)c(Cl)c2)c1`, the IC50 came out at 1.06 µM.

On to `CC(C)(C)COc1ccc2c(N)n[nH]c2c1`, for which the IC50 was found to be 0.79 µM.

For the compound `CCc1c(CCNCCc2cccc(CCNCCc3ccc(OC)c(OC)c3CC)c2)ccc(OC)c1OC`, the IC50 worked out at 0.36 µM.

`Cc1ccc(NCc2cccc(F)c2)cc1S(=O)(=O)N[C@@H]1CCN(C#N)C1` had an IC50 of 0.79 µM.

Take `COc1ccc2nc3cc(Cl)ccc3c(NCCCCN3CCNCC3)c2c1`: the IC50 was found to be 0.18 µM.

Consider `CN(Cc1ccc(-c2ccc(C(F)(F)F)cc2)cc1)C(=O)Cn1c(CCc2cccc(F)c2F)cc(=O)c2ccc(OCC3CCCN3C)cc21` (stereo not drawn), for which the IC50 was found to be 1.07 µM.

As to `N#Cc1cccc(C(=O)Nc2cccc(-c3ccc(C(=O)Nc4cccnc4)cc3)c2)c1`, the IC50 was found to be 0.69 µM.

As to `Oc1ccc(-c2cc(COc3ccccc3C(F)(F)F)c(C3=CCNCC3)cc2COc2ccccc2C(F)(F)F)cc1`, the IC50 amounted to 0.78 µM.

Turning to `COc1ccc2c(NN=Cc3cccc(Cl)c3)ccnc2c1`, the IC50 came to 0.72 µM.

Take `COc1ccc2nc(-c3ccc(C(=O)NCCCN4CCN(c5cc(Cl)ccc5OC)CC4)cc3)[nH]c2c1`: the IC50 worked out at 0.77 µM.

As for `CS(=O)(=O)c1ccc(-c2cnc(N)c(-c3cccc(O)c3)c2)cc1`, the IC50 came out at 0.69 µM.

Compound `Nc1ncc(-c2ccc(F)c(Cl)c2)c(N)n1` registered an IC50 of 1.23 µM.

For `Nc1nc(N)c2c(n1)CCC(c1ccccc1)C2` (stereo not drawn), the IC50 was 1.01 µM.

As to `Cc1ccc(C(=O)Nc2ccc(Nc3ccnc4cc(-c5ccccn5)ccc34)cc2O)cc1`, the IC50 was found to be 0.11 µM.

Regarding `COc1cc(NC(=O)c2cc([N+](=O)[O-])ccc2NC(=O)CNC2CCCCC2C)cc(OC)c1` (stereo not drawn), the IC50 was determined as 1.73 µM.

`Cc1cc(N[C@@H](CC(C)C)C(=O)NCc2cccs2)nc(NCCc2ccccc2)n1` displayed an IC50 of 1.19 µM.

In turn, `COc1cccc(-c2ccc(NC(=O)C3CCCN(Cc4cccc(OC)c4O)C3)cc2)c1` (stereo not drawn) gave an IC50 of 0.85 µM.

Compound `COc1ccc(N2CCN(CCCCNC(=O)c3ccc(NC(=O)c4ccc(Cl)cc4)cc3)CC2)c(C)c1` showed an IC50 of 0.76 µM.

Turning to `CN(C)CCNCc1nc(-c2ccc3c(Nc4ccc(Oc5ccccc5)cc4)ccnc3c2)cs1`, the IC50 is 0.74 µM.

Consider `OCCC1CCN(Cc2ccc(-c3ccc(-c4nc5ccccc5[nH]4)cc3)cc2)CC1`, for which the IC50 was 0.77 µM.

Regarding `Fc1cc(Cl)ccc1Nc1ccnc2cc(-c3scnc3CNCCN3CCOCC3)ccc12`, the IC50 was found to be 0.85 µM.

As for `CN(CCCN(C)c1cc(NC(=O)c2ccc(F)cc2)ccn1)Cc1cccc(O)c1`, the IC50 came to 1.21 µM.

`CCN(CC)Cc1cc(Nc2ccnc3cc(Cl)ccc23)ccc1O` displayed an IC50 of 0.16 µM.

As to `Cc1ccc(NC(=O)Nc2ccccc2)cc1-c1ccc(C(=O)Nc2ccncc2)cc1`, the IC50 was determined as 0.24 µM.

Take `Cc1ccccc1OCCCN1CCN(CC(c2ccc(F)cc2)N2CCN(C(C)C)CC2)CC1` (stereo not drawn): the IC50 came out at 1.41 µM.

With `Cc1ccc(F)c(OCC2CCN(c3ccc(C(=O)NC4CC4)cn3)CC2)c1`, the IC50 turned out to be 0.73 µM.

Compound `CC1(C)N=C(N)N=C(N)N1CCc1ccccc1` gave an IC50 of 0.05 µM.

`COc1cc(NC(=O)/C=C/c2cccc3ccoc23)ccc1OCCN(C(C)C)C(C)C` returned an IC50 of 1.04 µM.

`Cc1nc2ccc3ccc(CNc4ccc(C(=O)N[C@@H](CCC(=O)O)C(=O)O)c(F)c4)cc3c2c(=O)[nH]1` gave an IC50 of 0.4 µM.

`c1cc(OCCN2CCCC2)ccc1CNC1CCN(CC2CCCCC2)CC1` displayed an IC50 of 0.84 µM.

`COc1ccc(NC(=O)/C=C/c2ccccc2Cl)cc1OCCN1CCC(NCc2ccccc2)CC1` had an IC50 of 0.35 µM.
